Data reported in US9062313B2, “Gem-difluorinated C-isopropylgalactoside derivates” (TFCHEM, priority 2011, dated 2015).

Tests used:
E. coli culture = test: Toxicity to bacteria (absorbance of bacteria culture, OD600nm); type: cell-based, Escherichia coli; conditions: 0.5 mM; for toxicity throughout the assay: 8 hours, versus negative control without inducer
Procedure: (§1) The bacteria strain E. coli XL1—Blue MRF′ Electroporation-competent cells (Stratagene #200158) containing pGEM-T vector was grown in LB medium adding with appropriate antibiotic (ampicillin). The starter culture was grown by inoculating plasmid containing cells in LB medium added with ampicillin and incubated overnight at 37° C. with shaking at 250 rpm. When culture reached the desired OD, the induction was started.
The absorbance of the bacteria culture was measured (OD600nm) every hour during 8 hours after the substrate addition. The absorbance was plotted as a function of time representing the toxicity for each inducer. The negative control (no toxicity) consists on an assay without inducer. Assays were performed as triplicate.

[1] = system: β-galactosidase expression (lacZ promoter); test: Induction of β-galactosidase expression in E. coli (ONPG assay, OD420nm); type: cell-based, Escherichia coli; conditions: for effectiveness as inducer compared with IBCG / effectiveness as inducer compared with IPTG: during 3 h following the substrate addition; for induction of β-galactosidase expression/transcription: inducer 0.5 mM, until 3 hours after addition of ONPG substrate; for efficacy of induction overtime: up to 8 h following substrate addition
Procedure: as §1
For each assay the starter culture was appropriately diluted (OD600=0.2) in 1.5 mL of LB medium with 3 μg/mL of ampicillin
β-galactosidase expression is then induced by addition of either IPTG (Sigma I1284), IBCG or Compounds T-16 and T-18 to final concentrations of 0.5 or 1 mM. After this induction the cultures are incubated for 3 hours at 37° C. with shaking at 250 rpm.
The β-galactosidase activity was assayed by adding 0.5 mg/mL of the ortho 2-nitrophenyl-β-D-galactopyranoside (ONPG Sigma N1127) as chromogenic substrate. ONPG is hydrolyzed by β-galactosidase to yield galactose and ortho-Nitrophenol, which is yellow in color and absorbs light at 420 nm. The intensity of the color can be used to determine the β-galactosidase activity.
Absorbance was measured (OD420nm) every hour during 8 hours after the substrate addition. The absorbance was plotted as a function of time representing the induction kinetic of β-galactosidase activity for each inducer and each concentration tested. Assays were performed as triplicate.

[2] = Stability of compounds in D2O solution at room temperature, followed by 19F NMR and 1H NMR; type: physicochemical
Procedure: Compounds T-16 and T-18 were dissolved in D2O and the resulting solutions were kept at room temperature. The stability of the compound was studied by ^19F NMR and ^1H NMR.

[3] = system: expression of Green Fluorescent Protein UV (GFPuv) in BLR(DE3) E. coli; test: Recombinant GFPuv protein production, total and soluble fractions (SDS-PAGE densitometry); type: cell-based, Escherichia coli; conditions: inducer 0.1 mM, 0.05 mM and 0.01 mM
Procedure: Properties: MW: 27 763 Da. Theoretical pI: 6.13—Theoretical Absorption coefficient: 0.788—Number of Cys: 2 Construction of One Expression Strain: • Construct GFPUV-pET30b/3 was transformed into BLR(DE3) E. coli expression strain. • Cultures were performed from one single colony in a semi-defined Riesenberg medium in order to produce a Research Cell Bank (20 tubes of 1 mL stored at <−70° C.). Pre-cultures and Cultures Conditions: • Pre-cultures and cultures were performed in semi-defined Riesenberg medium, 50 mL and 250 mL flasks-scale, respectively. […] Analysis by SDS-PAGE Stained by Coomassie Blue • Sample: 10 μl deposit of suspension at equivalent OD600nm=8. • The proteins were separated by SDS-PAGE 4-12%, and then colored by Coomassie blue. • Quantitative measurement by densitometry and comparison with standard range of proteins.
Quantity of proteins (μg) was plotted as a function of time representing the kinetic of induction of GFPuv expression for each inducer and/or concentration tested.
The induction profile of GFPuv was evaluated for both IPTG and T-18 inducers at different concentrations. […]

| SMILES | toxicity throughout the assay (E. coli culture) | effectiveness as inducer compared with IBCG ([1]; 0.5 mM) | effectiveness as inducer compared with IPTG ([1]; 0.5 mM) | induction of β-galactosidase expression/transcription [1] | degradation in solution (stability by 19F NMR and 1H NMR) ([2]; 10 weeks follow up) | toxicity compared with IPTG (E. coli culture; after 3 h up to 8 h following the substrate addition) | toxicity compared with IPTG (E. coli culture; until 3 h following the substrate addition) | effectiveness relative to IPTG ([1]; 0.5 mM, 8 h following substrate addition) | efficacy of induction overtime ([1]; 0.5 mM) | final quantity of GFPuv produced (total fraction) compared with IPTG [3] | degradation in solution (stability by 19F NMR and 1H NMR) ([2]; 24 weeks follow up) |
| --- | --- | --- | --- | --- | --- | --- | --- | --- | --- | --- | --- |
| CC(C)(O)C(F)(F)[C@@H]1O[C@H](CO)[C@H](O)[C@H](O)[C@H]1O [Compound T-16] | medium toxicity | more effective inducers than IBCG | as effective inducers than IPTG | efficient inducers | without any degradation |  |  |  |  |  |  |
| CC(C)C(F)(F)[C@@H]1O[C@H](CO)[C@H](O)[C@H](O)[C@H]1O [Compound T-18] |  | more effective inducers than IBCG | as effective inducers than IPTG | efficient inducers |  | less toxic than IPTG | as toxic as IPTG | at least 3 times | remains effective overtime | higher than with IPTG | without any degradation |
| CC(C)S[C@@H]1O[C@H](CO)[C@H](O)[C@H](O)[C@H]1O [IPTG, isopropyl-β-D -thiogalactopyranoside, reference compound] | medium toxicity |  |  |  |  |  |  |  | efficacy decrease |  |  |
